One data set has as its target T1, MMP-9 of the rat (Rattus norvegicus, UniProt P50282).
T1 construct: purchased R&D Systems 5427-MM
Put plainly: In vitro MMP-9 inhibition test of the rat. Format: biochemical.

Data set [1] has as its target T2, human macrophage elastase (HME/hMMP-12) (Homo sapiens, UniProt P39900).
T2 construct: 0.5 nM HME; purchased R&D Systems 917-MP
Put plainly: In vitro HME inhibition test in the presence of serum albumin (2% BSA). Format: biochemical. Particulars: presence of serum albumin (BSA, 2% w/w). The text has this: The activity of the compounds according to the invention towards HME (MMP-12) is ascertained in an in vitro inhibition test. The HME-mediated amidolytic cleavage of a suitable peptide substrate leads herein to a fluorescent light increase. The signal intensity of the fluorescent light is directly proportional to the enzyme activity. The active concentration of a test compound at which half of the enzyme is inhibited (50% signal intensity of the fluorescent light) is given as IC50 value.
This test corresponds to the standard HME inhibition test described above, but using a modified reaction buffer. This reaction buffer additionally comprises bovine serum albumin (BSA, fatty acid-free, A6003, Sigma-Aldrich) of a final concentration of 2% (w/w), which corresponds to approximately half of the physiological serum albumin content.
Table 1 below gives the IC50 values from these HME inhibition tests for the working examples of the present invention and also for two structurally related comparison compounds from the prior art (as racemate or separated enantiomers)→(sometimes as average values from several independent individual determinations and rounded to two significant places). The IC50 values were determined for racemates and enantiomers from differently generated DMSO stock solutions. Whereas an automatically created DMSO stock solution from the internal substance logistics was used for racemates by means of a standard method, for enantiomers and for a more precise direct comparison of the enantiomers with one another, in each case a freshly produced, manually prepared DMSO stock solution was used.

A short description of data set [2]: Pharmacokinetic investigations in vivo, dog. As to conditions: Dog (Beagle). As to the method: (§1) The substance to be examined is administered to rats, mice or dogs intravenously as a solution (for example in corresponding plasma with a small addition of DMSO or in a PEG/ethanol/water mixture), and peroral administration is effected as a solution (for example in Solutol/ethanol/water or PEG/ethanol/water mixtures) or as a suspension (e.g. in a water/tylose mixture), in each case via a gavage. After administration of the substance, blood is taken from the animals at fixed times. The blood is heparinized, then plasma is obtained therefrom by centrifugation. The test substance is quantified analytically in the plasma via LC-MS/MS. From the plasma concentration/time plots determined in this way, using an internal standard and with the aid of a validated computer program, the pharmacokinetic parameters, such as AUC (area under the concentration/time curve), Cmax (maximum plasma concentration), t1/2 (half life), VSS (distribution volume) and CL (clearance), and the absolute and relative bioavailability F and Frel (i.v./p.o. comparison or comparison of suspension to solution after p.o. administration), are calculated.

A short description of data set [3]: Pharmacokinetic investigations in vivo, rat. As to conditions: Rat (Wistar). The protocol:
as §1

Data set [4] in a line: Pharmacokinetic investigations in vivo, mouse. Particulars: Mouse (C57BL/6). As to the method:
as §1

Data set [5] in a line: Hepatocyte assay for determining the metabolic stability. Format: in vitro ADME. As to conditions: incubation with rat hepatocytes; read-out: Fmax (maximum possible bioavailability, well-stirred). The protocol:
(§2) The metabolic stability of test compounds towards hepatocytes is determined by incubating the compounds at low concentrations (preferably below or around 1 μM) and at low cell counts (preferably at 1*10^6 cells/ml) in order to ensure the greatest possible linear kinetic conditions in the experiment. Seven samples from the incubation solution are removed within a stipulated time frame for the LC-MS analysis in order to determine the half life (i.e. the degradation) of the particular compound. This half life is used to calculate various “Clearance” parameters (CL) and “Fmax” values (see below).
(§3) The CL and Fmax values are a measure of the phase 1 and phase 2 metabolism of the compounds in the hepatocytes. In order to keep the influence of the organic solvent on the enzymes in the incubation mixtures as low as possible, its concentration is generally limited to 1% (acetonitrile) or 0.1% (DMSO).
(§4) For all species and races, a hepatocyte cell count in the liver of 1.1*10^8 cells/g of liver is estimated.
(§5) The calculated parameters and their meaning are: • Fmax well-stirred [%] Maximum possible bioavailability following oral application
(§6) Calculation: (1−CLblood well-stirred/QH)*100 • CLblood well-stirred [L/(h*kg)] Calculated blood clearance (well stirred model) […]

In another data set the test system is rat hepatocytes. The description is as above. Format: in vitro ADME. Particulars: incubation with rat hepatocytes. As to the method: as §2, §3, §4, §5, §6
Where [6] appears, read: plasma, iv, read-out: CLPlasma CLblood (converted).
Where [7] appears, read: plasma, po, p.o., read-out: t1/2 p.o. (converted).

T1 sequence (P50282 108-708): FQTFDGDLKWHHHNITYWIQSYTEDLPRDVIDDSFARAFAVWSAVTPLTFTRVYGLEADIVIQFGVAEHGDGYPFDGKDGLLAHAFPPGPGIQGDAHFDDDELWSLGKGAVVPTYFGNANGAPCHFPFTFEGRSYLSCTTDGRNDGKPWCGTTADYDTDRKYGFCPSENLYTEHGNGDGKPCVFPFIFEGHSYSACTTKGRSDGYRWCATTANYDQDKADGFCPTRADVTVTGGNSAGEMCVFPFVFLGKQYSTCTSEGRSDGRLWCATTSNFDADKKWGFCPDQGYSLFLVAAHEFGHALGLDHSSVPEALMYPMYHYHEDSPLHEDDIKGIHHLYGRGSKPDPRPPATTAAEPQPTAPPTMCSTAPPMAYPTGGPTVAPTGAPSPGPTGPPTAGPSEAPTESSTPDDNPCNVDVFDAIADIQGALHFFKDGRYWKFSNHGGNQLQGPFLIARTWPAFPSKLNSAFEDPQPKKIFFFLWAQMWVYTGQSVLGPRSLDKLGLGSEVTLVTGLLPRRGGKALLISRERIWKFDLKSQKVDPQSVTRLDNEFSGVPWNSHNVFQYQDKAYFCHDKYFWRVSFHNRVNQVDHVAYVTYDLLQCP
T2 sequence (P39900 106-470): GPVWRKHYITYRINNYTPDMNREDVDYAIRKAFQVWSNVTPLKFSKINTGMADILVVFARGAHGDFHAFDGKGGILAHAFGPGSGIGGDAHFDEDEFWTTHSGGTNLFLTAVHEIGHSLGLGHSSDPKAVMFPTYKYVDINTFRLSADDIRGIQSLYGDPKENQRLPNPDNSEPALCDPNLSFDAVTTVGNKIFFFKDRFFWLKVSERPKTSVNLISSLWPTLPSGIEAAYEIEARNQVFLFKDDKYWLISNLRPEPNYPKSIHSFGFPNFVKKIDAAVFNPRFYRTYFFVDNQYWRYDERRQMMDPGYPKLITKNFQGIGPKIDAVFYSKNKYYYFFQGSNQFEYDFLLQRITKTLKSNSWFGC

On MMP-9 of the rat, `O=C(O)[C@H]1[C@H](Cn2nnc3ccccc3c2=O)CC[C@@H]1C(=O)c1ccc(-c2ccc(Cl)cc2)cc1` (racemic) [Comparative Example A-1, (1RS,2RS,5SR)-2-[(4′-chlorobiphenyl-4-yl)carbonyl]-5-[(4-oxo-1,2,3-benzotriazin-3(4H)-yl)methyl]cyclopentanecarboxylic acid (racemate)] gave an IC50 of 4.6 nM.

In turn, `CCCCCOc1ccc(C(=O)CC(CCn2nnc3ccccc3c2=O)C(=O)O)cc1` (racemic) [Comparative Example B-1, (+/−)-4-Oxo-2-[2-(4-oxo-1,2,3-benzotriazin-3(4H)-yl)ethyl]-4-[4-(pentyloxy)phenyl]butanoic acid (racemate)] came in with a half-maximal inhibitory concentration (IC50) on MMP-9 of the rat of 3200 nM.

In turn, `O=C(O)[C@H]1[C@H](Cn2nnc3ccccc3c2=O)CC[C@@H]1C(=O)c1ccc(OCc2ccccc2)cc1` (racemic) [Example 1, (+/−)-(1RS,2RS,5SR)-2-[4-(Benzyloxy)benzoyl]-5-[(4-oxo-1,2,3-benzotriazin-3(4H)-yl)methyl]cyclopentanecarboxylic acid (racemate)] returned an IC50 against MMP-9 of the rat of 110 nM.

For `CCCCCOc1ccc(C(=O)CC(CCn2nnc3ccccc3c2=O)C(=O)O)cc1` (single isomer, unassigned; enantiomer 1) [Comparative Example B-2, (+)-4-Oxo-2-[2-(4-oxo-1,2,3-benzotriazin-3(4H)-yl)ethyl]-4-[4-(pentyloxy)phenyl]butanoic acid (enantiomer 1)], the IC50 turned out to be 1350 nM at MMP-9 of the rat and 170 nM in data set [1].

Consider `O=C(O)[C@@H]1[C@@H](Cn2nnc3ccccc3c2=O)CC[C@H]1C(=O)c1ccc(-c2ccc(Cl)cc2)cc1` (single isomer, unassigned; enantiomer 2) [Comparative Example A-3, (1RS,2RS,5SR)-2-[(4′-Chlorobiphenyl-4-yl)carbonyl]-5-[(4-oxo-1,2,3-benzotriazin-3(4H)-yl)methyl]cyclopentanecarboxylic acid (enantiomer 2)], for which the values for the IC50 (at MMP-9 of the rat; in data set [1]) were 3.3 nM and 5.4 nM, respectively.

For `O=C(O)[C@H]1[C@H](Cn2nnc3ccccc3c2=O)CC[C@@H]1C(=O)c1ccc(OCc2ccccc2)cc1` [Example 2, (+)-(1S,2S,5R)-2-[4-(Benzyloxy)benzoyl]-5-[(4-oxo-1,2,3-benzotriazin-3(4H)-yl)methyl]cyclopentanecarboxylic acid], the F in data set [2] (bioavailability from solution) is reported as 100%; in data set [3] (bioavailability from solution) it was 100%; in data set [4] (bioavailability from solution), 84%. For the same compound, the figures for the AUCnorm i.v. in data set [2] (i.v.), in data set [3] (i.v.) and in data set [4] (i.v.) were 10.6 kg·h/L, 93.6 kg·h/L and 44.6 kg·h/L, respectively. Further, the clearance in data set [2] (setting [6]) was 1.57 mL/min/kg; in data set [3] (setting [6]), 0.183 mL/min/kg; in data set [4] (setting [6]) it was 0.367 mL/min/kg. For the same compound, the half-life in data set [2] (setting [7]) was 14.4 h; in data set [3] (setting [7]) it was 8.4 h; in data set [4] (setting [7]) it was 5 h. In data set [3] (suspension vs solution p.o.), the Frel was found to be 97%. In addition, the figures for the IC50 (at MMP-9 of the rat; in data set [1]) were 46.5 nM and 8.4 nM, respectively. In data set [5], the bioavailability worked out at 84.4%. In the data set with rat hepatocytes, the “CLblood (calculated blood clearance, well-stirred)” value was 10.8 mL/min/kg.

Values taken from patent US20170119776A1, “CHIRAL 2,5-DISUBSTITUTED CYCLOPENTANECARBOXYLIC ACID DERIVATIVES AND USE THEREOF” (BAYER PHARMA AKTIENGESELLSCHAFT, priority 2014, published 2017).
